ChEMBL document CHEMBL1201862, “PubChem BioAssay data set” (2004)
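Following 48 hours of exposure in 96-well plates, responses at five concentrations were used to interpolate endpoints linearly. The concentration for 50% growth inhibition is given as GI50.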 Active and inactive are the calls of the source. Cut-off read from the data, not from the text of the source: active = GI50 up to about 1.1 µM and inactive = higher. *1 amine or outer side, *2 acyl side, *3 side chain or, on linkers, in order; H or OH if unused. Where a SMILES comes first, the peptide text is derived from it. Bridges are numbered along the chain shown (N, C = ends). Roman numbers before positions name the chains, in order. [ ]: non-standard residue; d: D form. Actinocin(9to1) = Cc1c2oc3c(C)ccc(C(=O)[*:1])c3nc-2c(C(=O)[*:2])c(N)c1=O; NMeV = CN[CH](C(=O)O)C(C)C; Sar = CNCC(=O)O

How the values were obtained:
Assay in all cases: DTP human tumour cell line panel, 48 h
LOX IMVI = system: LOX IMVI
SK-MEL-2 = system: SK-MEL-2
SF-539 = system: SF-539
Malme-3M = system: Malme-3M
SNB-75 = system: SNB-75
HL-60 = system: HL-60
EKVX = system: EKVX
NCI/ADR-RES = system: NCI/ADR-RES
SK-OV-3 = system: SK-OV-3
SR = system: SR
K562 = system: K562
HOP-62 = system: HOP-62
Hs-578T = system: Hs-578T
CCRF-CEM = system: CCRF-CEM
SF-295 = system: SF-295
CAKI-1 = system: CAKI-1
NCI-H460 = system: NCI-H460
A498 = system: A498
T47D = system: T47D
MDA-MB-231 = system: MDA-MB-231

Row | SMILES | GI50 (LOX IMVI) | GI50 (SK-MEL-2) | GI50 (SF-539) | GI50 (Malme-3M) | GI50 (SNB-75) | GI50 (HL-60) | GI50 (EKVX) | GI50 (NCI/ADR-RES) | GI50 (SK-OV-3) | GI50 (SR) | GI50 (K562) | GI50 (HOP-62) | GI50 (Hs-578T) | GI50 (CCRF-CEM) | GI50 (SF-295) | GI50 (CAKI-1) | GI50 (NCI-H460) | GI50 (A498) | GI50 (T47D) | GI50 (MDA-MB-231)
1 | CCCCN1CSC(=S)N(Cc2ccccc2)C1 | 36.9 µM (inactive) | > 59.3 µM (inactive) | > 100 µM (inactive) | 36.8 µM (inactive) | 33.7 µM (inactive) | 3.56 µM (inactive) | 30 µM (inactive) | 54.3 µM (inactive) | > 100 µM (inactive) | 31.7 µM (inactive) | 31.8 µM (inactive) | > 100 µM (inactive) | > 70.3 µM (inactive) | 4.47 µM (inactive) | 48.1 µM (inactive) | > 100 µM (inactive) | 31.9 µM (inactive) | > 62.1 µM (inactive) | 34.8 µM (inactive) | > 100 µM (inactive)
2 | CCOC1CC(=O)c2c(Br)sc(Br)c21 (stereo not given) | 19.5 µM (inactive) | 17.5 µM (inactive) | 26.4 µM (inactive) | 23.1 µM (inactive) | 19.1 µM (inactive) | 20.4 µM (inactive) | 21.7 µM (inactive) | 37.6 µM (inactive) | 16.5 µM (inactive) | 21.7 µM (inactive) | 17.3 µM (inactive) | 18.5 µM (inactive) | 37.8 µM (inactive) | 7.31 µM (inactive) | 27.9 µM (inactive) | 17.3 µM (inactive) | 20.7 µM (inactive) | 32.4 µM (inactive) | 19.9 µM (inactive) | 19.5 µM (inactive)
3 | NC(=S)N/N=C1/CCCC2CCCC[C@@H]12 (stereo not given in full) | > 100 µM (inactive) | > 100 µM (inactive) | > 100 µM (inactive) | > 100 µM (inactive) | > 100 µM (inactive) | > 100 µM (inactive) | 35 µM (inactive) | > 100 µM (inactive) | > 100 µM (inactive) | > 100 µM (inactive) | > 100 µM (inactive) | > 100 µM (inactive) | 76.4 µM (inactive) | > 100 µM (inactive) | > 100 µM (inactive) | > 100 µM (inactive) | > 100 µM (inactive) | > 100 µM (inactive) | 37.4 µM (inactive) | > 100 µM (inactive)
4 | Cc1c2oc3c(C)ccc(C(=O)NC4C(=O)NC(Cc5ccccc5)C(=O)N5CCCC5C(=O)N(C)CC(=O)N(C)C(C(C)C)C(=O)OC4C)c3nc-2c(C(=O)NC2C(=O)NC(Cc3ccccc3)C(=O)N3CCCC3C(=O)N(C)CC(=O)N(C)C(C(C)C)C(=O)OC2C)c(N)c1=O (stereo not given) (I: TFP[Sar][NMeV] / II: TFP[Sar][NMeV]; ester I:1-I:C, II:1-II:C; linker I:N-II:N via Actinocin(9to1); configuration not given here) | < 0.001 µM (active) | < 0.001 µM (active) | 0.123 µM (active) | < 0.001 µM (active) | 0.00577 µM (active) | < 0.001 µM (active) | 0.136 µM (active) | 0.439 µM (active) | < 0.001 µM (active) | < 0.001 µM (active) | < 0.001 µM (active) | 0.0119 µM (active) | 0.0011 µM (active) | < 0.001 µM (active) | < 0.001 µM (active) | 0.00151 µM (active) | < 0.001 µM (active) | 0.00204 µM (active) | < 0.001 µM (active) | 0.022 µM (active)
5 | CCC(C)C1NC(=O)C(NC(=O)C(CC(C)C)N(C)C(=O)[C@@H]2C=CCN2C(=O)[C@H](C)O)C(C)OC(=O)[C@H](Cc2ccc(OC)cc2)N(C)C(=O)[C@@H]2CCCN2C(=O)[C@H](CC(C)C)NC(=O)C(C)C(=O)[C@H](C(C)C)OC(=O)CC1O (stereo not given in full) | 0.00242 µM (active) | < 0.01 µM (active) | 0.00139 µM (active) | 0.00219 µM (active) | 0.00198 µM (active) | 0.00299 µM (active) | < 0.01 µM (active) | 0.0419 µM (active) | 0.00239 µM (active) | 0.000216 µM (active) | 0.0021 µM (active) | 0.00303 µM (active) | < 0.01 µM (active) | 0.00164 µM (active) | 0.00248 µM (active) | 0.00984 µM (active) | 0.00215 µM (active) | 0.00671 µM (active) | 0.0013 µM (active) | 0.00608 µM (active)
